Assay results taken from US8440666B2, “Pyridazinone compounds and P2X7 receptor inhibitors” (Nissan Chemical Industries, Ltd., priority 2007, dated 2013).
Counter-ions that a name gives are not always drawn.

Biological target: T1, Human P2X7 (hP2X7) receptor (Homo sapiens, UniProt Q99572)
T1 construct: myc-His (from the pcDNA3.1/myc-HisA vector); expressed in transfected cells
T1 sequence (Q99572 1-595): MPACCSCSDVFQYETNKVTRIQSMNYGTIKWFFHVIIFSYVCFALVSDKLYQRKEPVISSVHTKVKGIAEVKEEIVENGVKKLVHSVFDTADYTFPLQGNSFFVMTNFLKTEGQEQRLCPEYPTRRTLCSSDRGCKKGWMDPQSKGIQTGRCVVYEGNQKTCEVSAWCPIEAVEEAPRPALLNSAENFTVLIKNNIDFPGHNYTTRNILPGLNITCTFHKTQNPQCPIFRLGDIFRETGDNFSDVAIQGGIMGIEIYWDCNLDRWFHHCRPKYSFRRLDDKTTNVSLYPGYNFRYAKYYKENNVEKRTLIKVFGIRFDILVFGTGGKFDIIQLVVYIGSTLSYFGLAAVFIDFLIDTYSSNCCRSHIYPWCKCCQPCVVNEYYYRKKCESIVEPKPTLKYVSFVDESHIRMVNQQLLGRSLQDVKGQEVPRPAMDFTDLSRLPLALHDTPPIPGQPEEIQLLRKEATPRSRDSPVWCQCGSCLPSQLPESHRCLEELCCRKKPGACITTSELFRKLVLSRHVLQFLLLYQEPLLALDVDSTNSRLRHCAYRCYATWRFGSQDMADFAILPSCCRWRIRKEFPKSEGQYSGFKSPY
Test: Dye assay: BzATP-induced Yo-Pro-1 uptake in HEK293 cells stably expressing hP2X7
Type: cell-based
Conditions: 90 min incubation
Excerpt: Human P2X7 (hP2×7) was cloned from a normal human brain total RNA library by reverse transcription (using SuperScript II (Invitrogen)) and PCR (using KOD-plus-(TOYOBO)). PCR primers were designed according to hP2X7 sequence registered in GENBANK with a putative amino acid sequence consisting of 595 amino acid residues. The PCR fragments were inserted into pcDNA3.1/myc-HisA vector (Invitrogen) and sequenced for confirmation.
HEK293 cells were transfected with hP2×7/pcDNA3.1/myc-HisA by lipofection, and 1 day later, the cells were treated with 1 mg/mL G418, and resistant cells were selected by appropriately dilution. The resistant cells were cloned by reseeding at a low density.
P2X7 receptor antagonists were screened by a dye uptake assay using HEK293 cells stably expressing hP2×7. Cells were plated on a type I collagen-coated black/clear bottom 96-well plate at 20000 cells/well and a day later, treated with varying concentrations of various test compounds for 30 minutes, then treated with a dye (Yo-Pro-1) (final concentration 2 μM) and BzATP (final concentration 0.1 mM) and incubated for 90 minutes. Then, the fluorescence (indicating the BzATP-induced Yo-Pro-1 uptake mediated by the P2X7 receptor) was measured with a microplate reader (excitation wavelength: 485 nm, emission wavelength: 535 nm). The % inhibition rates were calculated and plotted against the logarithms of the concentrations to determine IC50.

[1] = BzATP (0.1 mM)-induced Yo-Pro-1 uptake, compounds 30 min pre-treatment
[2] = BzATP 0.1 mM, Yo-Pro-1 2 μM, 30 min pre-treatment

Row | Structure (SMILES) | IC50 [1] | IC50 [2]
1 | C[C@@H]1[C@H]2C[C@@H](C[C@H]1Nc1cnn(CC(=O)NCc3cc[n+]([O-])cc3)c(=O)c1Br)C2(C)C [Synthetic Example 158, 4-[(2-{5-Bromo-6-oxo-4-[(1R,2R,3R,5S)-2,6,6-trimethylbicyclo[3.1.1]hept-3-ylamino]pyridazin-1(6H)-yl}acetamido)methyl]pyridine 1-oxide] | 45 nM | 
2 | C[C@@H]1[C@H]2C[C@@H](C[C@H]1Nc1cnn(CC(=O)N[C@@H](CO)c3ccccc3)c(=O)c1Cl)C2(C)C [compound 271] | 14 nM | 
3 | Cc1cc(NC(=O)Cn2ncc(N[C@@H]3C[C@@H]4C[C@H]([C@H]3C)C4(C)C)c(Cl)c2=O)sn1 [compound 292] | 68 nM | 
4 | COc1cc(CNC(=O)Cn2ncc(N[C@@H]3C[C@@H]4C[C@H]([C@H]3C)C4(C)C)c(Br)c2=O)on1 [compound 100] | 54 nM | 
5 | C[C@@H]1[C@H]2C[C@@H](C[C@H]1Nc1c(O)nn(CC(=O)NCc3ccncc3)c(=O)c1Cl)C2(C)C [Synthetic Example 390, 2-[5-Chloro-3-hydroxy-6-oxo-4-{[(1R,2R,3R,5S)-2,6,6-trimethylbicyclo[3.1.1]hept-3-yl]amino}pyridazin-1(6H)-yl]-N-(pyridin-4-ylmethyl)acetamide Hydrochloride] | 270 nM | 
6 | C[C@@H]1[C@H]2C[C@@H](C[C@H]1Nc1cnn(-c3cccc(C(=O)NCc4ccncc4)c3)c(=O)c1Br)C2(C)C [Synthetic Example 162, 3-{5-Bromo-6-oxo-4-[(1R,2R,3R,5S)-2,6,6-trimethylbicyclo[3.1.1]hept-3-ylamino]pyridazin-1(6H)-yl}-N-(pyridin-4-ylmethyl)benzamide] | 51 nM | 
7 | Cc1cnccc1CNC(=O)Cn1ncc(N[C@@H]2C[C@@H]3C[C@H]([C@H]2C)C3(C)C)c(Br)c1=O [compound 170] | 3.1 nM | 
8 | CC(C)CNC(=O)Cn1ncc(N[C@@H]2C[C@@H]3C[C@H]([C@H]2C)C3(C)C)c(Br)c1=O [compound 209] | 42 nM | 
9 | C[C@@H]1[C@H]2C[C@@H](C[C@H]1Nc1cnn(CC(=O)NC(C#N)c3ccccc3)c(=O)c1Br)C2(C)C (stereo partly drawn) [compound 190] | 54 nM | 
10 | CC1(C)C2CCC1(C)C(Nc1cnn(CC(=O)NCc3ccncc3)c(=O)c1Br)C2 (stereo not drawn) [compound 61] | 41 nM | 
11 | CC(NC(=O)Cn1ncc(N[C@@H]2C[C@@H]3C[C@H]([C@H]2C)C3(C)C)c(Br)c1=O)c1ccc(Cl)cc1 (stereo partly drawn) [compound 197] | 32 nM | 
12 | C[C@@H]1[C@H]2C[C@@H](C[C@H]1Nc1cnn(CC(=O)NCc3ccnc4ccccc34)c(=O)c1Br)C2(C)C [compound 167] | 22 nM | 
13 | O=C(Cn1ncc(NC2CCCCCCC2)c(Br)c1=O)NCc1ccncc1 [compound 321] | 38 nM | 
14 | C[C@@H]1[C@H]2C[C@@H](C[C@H]1Nc1cnn(CC(=O)NCc3ccccc3N(C)C)c(=O)c1Cl)C2(C)C [compound 247] | 32 nM | 
15 | C[C@@H](NC(=O)Cn1ncc(NC23CC4CC(CC2C4)C3)c(Cl)c1=O)c1ccncc1 [compound 347] | 5 nM | 
16 | C[C@@H]1[C@H]2C[C@@H](C[C@H]1Nc1cnn(CC(=O)NCc3ccnc(F)c3)c(=O)c1Br)C2(C)C [compound 222] | 4.3 nM | 
17 | C[C@@H]1[C@H]2C[C@@H](C[C@H]1Nc1cnn(CC(=O)Nc3ccc4c(c3)C(=O)N(C)C4=O)c(=O)c1Br)C2(C)C [compound 88] | 44 nM | 
18 | C[C@@H]1[C@H]2C[C@@H](C[C@H]1Nc1cnn(CC(=O)NCC3CCOCC3)c(=O)c1Cl)C2(C)C [compound 232] | 37 nM | 
19 | C[C@@H]1[C@H]2C[C@@H](C[C@H]1Nc1cnn(CC(=O)NCC3CCCCC3)c(=O)c1Br)C2(C)C [compound 208] | 84 nM | 
20 | CCC(NC(=O)Cn1ncc(NC23CC4CC(CC2C4)C3)c(Cl)c1=O)c1ccncn1 (stereo not drawn) [compound 351] | 45 nM | 

Row | Structure (SMILES) | IC50 [1] | IC50 [2]
21 | C[C@@H]1[C@H]2C[C@@H](C[C@H]1Nc1cnn(CC(=O)Nc3nc(-c4ccncc4)cs3)c(=O)c1Cl)C2(C)C [compound 226] | 84 nM | 
22 | CC(C(=O)NCc1ccncc1)n1ncc(N[C@@H]2C[C@@H]3C[C@H]([C@H]2C)C3(C)C)c(Br)c1=O (stereo partly drawn) [Synthetic Example 46, 2-{5-Bromo-6-oxo-4-[(1R,2R,3R,5S)-2,6,6-trimethylbicyclo[3.1.1]hept-3-ylamino]pyridazin-1(6H)-yl}-N-(pyridin-4-ylmethyl)propanamide] | 14 nM | 
23 | CC(NC(=O)Cn1ncc(NC23CC4CC(CC2C4)C3)c(Cl)c1=O)c1ccncc1Cl (stereo not drawn) [compound 354] | 2.6 nM | 
24 | C[C@@H]1[C@H]2C[C@@H](C[C@H]1Nc1cnn(CC(=O)N/C(=N/O)c3ccncc3)c(=O)c1Br)C2(C)C [compound 172] | 310 nM | 
25 | CC(NC(=O)Cn1ncc(N[C@@H]2C[C@@H]3C[C@H]([C@H]2C)C3(C)C)c(Cl)c1=O)c1ccnnc1Cl (stereo partly drawn) [compound 439] |  | 2 nM
26 | CC(C)NC(=O)Cn1ncc(N[C@@H]2C[C@@H]3C[C@H]([C@H]2C)C3(C)C)c(Cl)c1=O [compound 134] | 20 nM | 
27 | CSc1c(N[C@@H]2C[C@@H]3C[C@H]([C@H]2C)C3(C)C)cnn(CC(=O)NCc2ccncc2)c1=O [Synthetic Example 146] | 70 nM | 
28 | C[C@@H]1[C@H]2C[C@@H](C[C@H]1Nc1cnn(CC(=O)NCc3ccc(C(F)(F)F)c(F)c3)c(=O)c1Br)C2(C)C [compound 183] | 230 nM | 
29 | CCC(NC(=O)Cn1ncc(NC23CC4CC(CC2C4)C3)c(Br)c1=O)c1ccncc1 (stereo not drawn) [compound 335] | 13 nM | 
30 | CC(NC(=O)Cn1ncc(N[C@@H]2C[C@@H]3C[C@@H](C3(C)C)[C@]2(C)O)c(Cl)c1=O)c1ccnnc1 (stereo partly drawn) [compound 364] | 3.4 nM | 
31 | C[C@@H]1[C@H]2C[C@@H](C[C@H]1Nc1cnn(C3(C(=O)NCc4ccncc4)CCC3)c(=O)c1Br)C2(C)C [Synthetic Example 420, 1-[5-Bromo-6-oxo-4-{[(1R,2R,3R,5S)-2,6,6-trimethylbicyclo[3.1.1]hept-3-yl]amino}pyridazin-1(6H)-yl]-N-(pyridin-4-ylmethyl)cyclobutanecarboxamide] | 120 nM | 
32 | C[C@@H]1[C@H]2C[C@@H](C[C@H]1Nc1cnn(CC(=O)NCc3ccnnc3)c(=O)c1Cl)C2(C)C [compound 293] | 3.5 nM | 
33 | CC(NC(=O)Cn1ncc(NC2C3CCCC2CCC3)c(Cl)c1=O)c1ccnc(F)c1 (stereo not drawn) [compound 377] | 2.3 nM | 
34 | C[C@@H]1[C@H]2C[C@@H](C[C@H]1Nc1cnn(CC(=O)NCc3ccnc(Cl)c3)c(=O)c1Br)C2(C)C [compound 99] | 39 nM | 
35 | C[C@@H]1[C@H]2C[C@@H](C[C@H]1Nc1cnn(CC(=O)NC(CC(N)=O)c3ccncc3)c(=O)c1Br)C2(C)C (stereo partly drawn) [Synthetic Example 428, 3-({[5-Bromo-6-oxo-4-{[(1R,2R,3R,5S)-2,6,6-trimethylbicyclo[3.1.1]hept-3-yl]amino}pyridazin-1(6H)-yl]acetyl}amino)-3-(pyridin-4-yl)propanamide] | 27 nM | 
36 | Cc1cnccc1CNC(=O)Cn1ncc(NC23CC4CC(CC2C4)C3)c(Cl)c1=O [compound 338] | 5.3 nM | 
37 | COc1nnccc1C(C)NC(=O)Cn1ncc(N[C@@H]2C[C@@H]3C[C@H]([C@H]2C)C3(C)C)c(Cl)c1=O (stereo partly drawn) [compound 441] |  | 1.9 nM
38 | COc1cc(OC)nc(Cn2ncc(N[C@@H]3C[C@@H]4C[C@H]([C@H]3C)C4(C)C)c(Br)c2=O)n1 [compound 89] | 35 nM | 
39 | C[C@@H]1[C@H]2C[C@@H](C[C@H]1Nc1cnn(CC(=O)NC(c3ccccc3)c3ccncc3)c(=O)c1Br)C2(C)C (stereo partly drawn) [compound 169] | 300 nM | 
